According to patent EP0353049A2, “NAD-independent alpha- glycerol-3-phosphate dehydrogenases, production and use therof in triglyceride and glycerol determinations” (Genzyme (U.K.) LTD., priority 1988, dated 1990):

Columns and labels:
[1] = target: T1, NAD-independent α-glycerol-3-phosphate dehydrogenase (Priestia megaterium, UniProt D5DYU7); test: α-glycerol-3-phosphate dehydrogenase activity assay (rate of INT reduction, absorbance at 505nm, 37°C); format: biochemical, B. megaterium; details: concentration of inhibitor bringing about 50% inhibition
T1 sequence (D5DYU7 1-559): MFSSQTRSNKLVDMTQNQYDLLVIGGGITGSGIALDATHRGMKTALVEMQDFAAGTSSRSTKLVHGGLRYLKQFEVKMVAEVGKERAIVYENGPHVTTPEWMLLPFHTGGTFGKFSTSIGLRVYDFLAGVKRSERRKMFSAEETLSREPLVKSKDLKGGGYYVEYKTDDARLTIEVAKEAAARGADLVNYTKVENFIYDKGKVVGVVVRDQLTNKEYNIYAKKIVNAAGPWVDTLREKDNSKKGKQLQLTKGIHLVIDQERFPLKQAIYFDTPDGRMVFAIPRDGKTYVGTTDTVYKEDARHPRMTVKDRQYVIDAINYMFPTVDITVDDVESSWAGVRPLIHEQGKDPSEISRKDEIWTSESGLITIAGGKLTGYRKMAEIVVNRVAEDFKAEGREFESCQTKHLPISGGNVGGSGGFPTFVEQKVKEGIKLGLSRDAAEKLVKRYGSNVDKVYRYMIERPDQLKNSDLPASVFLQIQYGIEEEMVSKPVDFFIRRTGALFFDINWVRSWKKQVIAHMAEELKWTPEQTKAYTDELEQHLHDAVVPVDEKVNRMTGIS
Method: Aliquots of the resulting cell-free extract and other samples containing partially purified α-glycerol-3-phosphate dehydrogenase were used in the following assay test system:
The rate of change of absorbance was measured at 505nm, 37°C in a spectrophotometer. According to such test, the specific activity of the purified enzyme (from gel filtration chromatography) was 1.0 unit/mg protein; a unit is number of µmoles of INT reduced per min.

[2] = target: enzyme from E. coli (Escherichia coli, UniProt P13035); details: cited from earlier work
Sequence of enzyme from E. coli (P13035 whole entry): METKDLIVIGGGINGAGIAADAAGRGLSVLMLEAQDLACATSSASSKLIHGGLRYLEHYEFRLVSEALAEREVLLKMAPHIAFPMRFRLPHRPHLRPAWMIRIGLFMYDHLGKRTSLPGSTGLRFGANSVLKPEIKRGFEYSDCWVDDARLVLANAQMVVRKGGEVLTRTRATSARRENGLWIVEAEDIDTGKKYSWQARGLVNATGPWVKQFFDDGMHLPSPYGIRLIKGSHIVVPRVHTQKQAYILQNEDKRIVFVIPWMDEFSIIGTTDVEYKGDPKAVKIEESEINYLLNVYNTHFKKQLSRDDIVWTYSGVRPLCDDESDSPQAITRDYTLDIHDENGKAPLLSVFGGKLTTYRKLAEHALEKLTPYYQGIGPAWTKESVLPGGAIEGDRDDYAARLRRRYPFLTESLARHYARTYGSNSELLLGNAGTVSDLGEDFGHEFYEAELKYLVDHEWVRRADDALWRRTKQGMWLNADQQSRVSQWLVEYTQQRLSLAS

| Compound | 50% inhibition of enzyme activity (concentration) [1] [%] | Km [2] [µM] |
| --- | --- | --- |
| ammonium sulphate | 1 |  |
| O=P(O)(O)OC[C@H](O)CO [L-α-glycerol-3-phosphate] |  | 400 |
